According to patent US10399932B2, “Inhibitors of indoleamine-2,3-dioxygenase for the treatment of cancer” (BRISTOL-MYERS SQUIBB COMPANY, priority 2015, dated 2019):

Biological target: human IDO1 (Homo sapiens, UniProt P14902)
Test: Assessment of human IDO-1 inhibitory activity in HEK cells (human IDO1/HEK293 cells, Ehrlich reagent, absorbance at 490 nm)
Type: cell-based
Design: expressed in transfected cells
Conditions: In Vitro Potency in the HEK Human IDO-1 Cellular Assay
Procedure: Exemplary compounds were tested for inhibition of IDO activity.
HEK293 cells were transfected with a pCDNA-based mammalian expression vector harboring human IDO1 cDNA (NM 002164.2) by electroporation. They were cultured in medium (DMEM with 10% FBS) containing 1 mg/ml G418 for two weeks. Clones of HEK293 cells that stably expressed human IDO1 protein were selected and expanded for IDO inhibition assay.
The human IDO1/HEK293 cells were seeded at 10,000 cells per 50 μL per well with RPMI/phenol red free media contains 10% FBS in a 384-well black wall clear bottom tissue culture plate (Matrix Technologies LLC) 100 nL of certain concentration of compound was then added to each well using ECHO liquid handling systems. The cells were incubated for 20 hours in 37° C. incubator with 5% CO2.
The compound treatments were stopped by adding trichloroacetic acid (Sigma-Aldrich) to a final concentration at 0.2%. The cell plate was further incubated at 50° C. for 30 minute. The equal volume supernatant (20 μL) and 0.2% (w/v) Ehrlich reagent (4-dimethylaminobenzaldehyde, Sigma-Aldrich) in glacial acetic acid were mixed in a new clear bottom 384-well plate. This plate was then incubated at room temperature for 30 minute. The absorbance at 490 nm was measured on Envision plate reader.
Compound IC50 values were calculated using the counts of 500 nM of a reference standard treatment as one hundred percent inhibition, and counts of no compound but DMSO treatment as zero percent inhibition.

Chain of human IDO1 (P14902 whole entry): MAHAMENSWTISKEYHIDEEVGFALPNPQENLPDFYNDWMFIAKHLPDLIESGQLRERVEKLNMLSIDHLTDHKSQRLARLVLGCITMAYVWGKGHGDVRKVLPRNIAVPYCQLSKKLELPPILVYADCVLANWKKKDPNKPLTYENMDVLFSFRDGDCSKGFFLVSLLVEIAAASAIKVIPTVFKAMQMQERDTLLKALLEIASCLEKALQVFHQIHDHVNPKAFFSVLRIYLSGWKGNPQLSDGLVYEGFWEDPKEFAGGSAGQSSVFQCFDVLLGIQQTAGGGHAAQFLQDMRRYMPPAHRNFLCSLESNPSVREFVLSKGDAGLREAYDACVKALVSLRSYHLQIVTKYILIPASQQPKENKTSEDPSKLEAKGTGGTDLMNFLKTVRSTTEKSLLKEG

SMILES | IC50
Cc1nc2ccc(Nc3cc(C(CC(=O)O)c4ccccc4)cc(F)c3N(CC(C)C)CC(C)C)cc2s1 (single isomer, unassigned) [Example 132, 3-(4-(diisobutylamino)-3-fluoro-5-((2-methylbenzo[d]thiazol-6-yl)amino)phenyl)-3-phenylpropanoic acid] | > 50 nM
CC(CC(=O)O)c1ccc(N(CC(C)(C)O)C2CCOCC2)c(Nc2ccc(Cl)cc2)c1 (single isomer, unassigned) [Example 193, 3-(3-((4-chlorophenyl)amino)-4-((2-hydroxy-2-methylpropyl)(tetrahydro-2H-pyran-4-yl)amino)phenyl)butanoic acid] | < 5 nM
CC[C@@H](CC(=O)O)c1ccc(N(CC(C)C)C2CCS(=O)(=O)CC2)c(NC(=O)Nc2cc(C)on2)c1 (single isomer, unassigned) [Example 218] | > 50 nM
CCc1ccc(Nc2cc([C@@H](CC)CC(=O)O)ccc2N(CC(C)(C)O)C2CCCCC2)cc1 (single isomer, unassigned) [Example 228] | < 5 nM
CCc1cnc(Nc2cc([C@@H](CC)CC(=O)O)ccc2N(CC)C2CCCCC2)nc1 (single isomer, unassigned) [Example 280] | > 50 nM
CCOc1ncc(Nc2cc(C(CC)CC(=O)O)ccc2N(CC(C)C)C2CCCCC2)cn1 (single isomer, unassigned) [Example 303, 3-(4-(cyclohexyl(isobutyl)amino)-3-((2-ethoxypyrimidin-5-yl)amino)phenyl)pentanoic acid] | < 5 nM
CCC(CC(=O)O)c1ccc(N(CC(C)C)C2CCCCC2)c(Nc2ccc(F)c(F)c2)c1 (single isomer, unassigned) [Example 306, 3-(4-(cyclohexyl(isobutyl)amino)-3-((3,4-difluorophenyl)amino)phenyl)pentanoic acid] | < 5 nM
CCC(CC(=O)O)c1ccc(N(CC(C)C)C2CCCCC2)c(Nc2ccc3c(c2)OCCO3)c1 (single isomer, unassigned) [Example 317, 3-(4-(cyclohexyl(isobutyl)amino)-3-((2,3-dihydrobenzo[b][1,4]dioxin-6-yl)amino)phenyl)pentanoic acid] | < 50 nM
CCN(c1ccc([C@@H](COC)CC(=O)O)cc1Nc1ccc2c(c1)OC(F)(F)O2)C1CCOCC1 (single isomer, unassigned) [Example 378] | < 50 nM
CCOc1ccc(NC(=O)Nc2cc([C@@H](CC)CC(=O)O)ccc2N(CC)C2CCOCC2)cc1 (single isomer, unassigned) [Example 491] | < 50 nM
CCOc1ccc(Nc2cc([C@H](CC)CC(=O)O)ccc2N(CC)C2CCOCC2)cc1 (single isomer, unassigned) [Example 514] | < 5 nM
CCN(c1ccc(C(CC(=O)O)c2ccccc2)cc1Nc1ccc(Cl)cc1F)C1CCOCC1 (single isomer, unassigned) [Example 582, 3-(3-((4-chloro-2-fluorophenyl)amino)-4-(ethyl(tetrahydro-2H-pyran-4-yl)amino)phenyl)-3-phenylpropanoic acid] | < 50 nM
CCN(c1ccc(C(CC(=O)O)c2ccccc2)cc1Nc1ccc2nc(C)sc2c1)C1CCOCC1 (single isomer, unassigned) [Example 589, 3-(4-(ethyl(tetrahydro-2H-pyran-4-yl)amino)-3-((2-methylbenzo[d]thiazol-6-yl)amino)phenyl)-3-phenylpropanoic acid] | > 50 nM
CCN(c1ccc(C(CC(=O)O)c2ccccc2)cc1Nc1ccc(C#N)cc1)C1CCOCC1 (single isomer, unassigned) [Example 591, 3-(3-((4-cyanophenyl)amino)-4-(ethyl(tetrahydro-2H-pyran-4-yl)amino)phenyl)-3-phenylpropanoic acid] | < 5 nM
CCN(c1ccc(C(CC(=O)O)c2ccccc2)cc1Nc1ccc(OC(F)F)cc1)C1CCOCC1 (single isomer, unassigned) [Example 593, 3-(3-((4-(difluoromethoxy)phenyl)amino)-4-(ethyl(tetrahydro-2H-pyran-4-yl)amino)phenyl)-3-phenylpropanoic acid] | < 50 nM
CCN(c1ccc(C(CC(=O)O)c2ccccc2)cc1NC(=O)Nc1ccc(OC)cc1F)C1CCOCC1 (single isomer, unassigned) [Example 596, 3-(4-(ethyl(tetrahydro-2H-pyran-4-yl)amino)-3-(3-(2-fluoro-4-methoxyphenyl)ureido)phenyl)-3-phenylpropanoic acid] | > 50 nM
CCOc1cc(Nc2cc(C(CC)CC(=O)O)ccc2N(CC(C)C)C2CCCCC2)ccc1Cl (single isomer, unassigned) [Example 646, 3-(3-((4-chloro-3-ethoxyphenyl)amino)-4-(cyclohexyl(isobutyl)amino)phenyl)pentanoic acid] | < 5 nM
CCC(CC(=O)O)c1ccc(N(CC(C)C)C2CCCCC2)c(Nc2ccc(Cl)c(OCC(F)F)c2)c1 (single isomer, unassigned) [Example 650, 3-(3-((4-chloro-3-(2,2-difluoroethoxy)phenyl)amino)-4-(cyclohexyl(isobutyl)amino)phenyl)pentanoic acid] | < 5 nM
CCC(CC(=O)O)c1ccc(N(CC(C)C)C2CCCCC2)c(Nc2ccc(Cl)c(OCC(F)(F)F)c2)c1 (single isomer, unassigned) [Example 651, 3-(3-((4-chloro-3-(2,2,2-trifluoroethoxy)phenyl)amino)-4-(cyclohexyl(isobutyl)amino)phenyl)pentanoic acid] | < 50 nM
CCC(CC(=O)O)c1ccc(N(CC(C)C)C2CCCCC2)c(Nc2ccc(Cl)c(OCC3CC3)c2)c1 (single isomer, unassigned) [Example 652, 3-(3-((4-chloro-3-(cyclopropylmethoxy)phenyl)amino)-4-(cyclohexyl(isobutyl)amino)phenyl)pentanoic acid] | < 50 nM
CCOc1cc(Nc2cc(C(CC)CC(=O)O)ccc2N(CC(C)C)C2CCCCC2)ccc1Cl (single isomer, unassigned) [Example 653, 3-(3-((4-chloro-3-ethoxyphenyl)amino)-4-(cyclohexyl(isobutyl)amino)phenyl)pentanoic acid] | < 50 nM
CCC(CC(=O)O)c1ccc(N(CC(C)C)C2CCCCC2)c(Nc2cnc(OC(C)C)nc2)c1 (single isomer, unassigned) [Example 655, 3-(4-(cyclohexyl(isobutyl)amino)-3-((2-isopropoxypyrimidin-5-yl)amino)phenyl)pentanoic acid] | < 5 nM
COCC(CC(=O)O)c1ccc(N(CC2CC2)C2CCOCC2)c(NC(=O)Nc2ccc(C)cc2)c1 (single isomer, unassigned) [Example 677, 3-(4-((Cyclopropylmethyl)(tetrahydro-2H-pyran-4-yl)amino)-3-(3-(p-tolyl)ureido)phenyl)-4-methoxybutanoic acid] | > 50 nM
CCC(CC(=O)O)c1ccc(N(CC2CC2)C2CCOCC2)c(NC(=O)Nc2ccc(Cl)cc2F)c1 (single isomer, unassigned) [Example 699, 3-(3-(3-(4-Chloro-2-fluorophenyl)ureido)-4-((cyclopropylmethyl)(tetrahydro-2H-pyran-4-yl)amino)phenyl)pentanoic acid] | < 5 nM
CCC(CC(=O)O)c1ccc(N(CC2CC2)C2CCOCC2)c(NC(=O)Nc2cc(C)on2)c1 (single isomer, unassigned) [Example 700, 3-(4-((Cyclopropylmethyl)(tetrahydro-2H-pyran-4-yl)amino)-3-(3-(5-methylisoxazol-3-yl)ureido)phenyl)pentanoic acid] | > 50 nM
